Assay [1] concerns the target biotinylated human IL-17A / AF647-labeled human IL-17RA (Homo sapiens, UniProt Q16552). Put plainly: Human IL-17A×IL-17RA TR-FRET assay. It is filed as binding. The note with it: TR-FRET, 5 nM IL-17A, 30 nM IL-17RA; read-out: IL17AA FRET/ IL17Rawt IC50. Put shortly: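 Compounds tested in duplicate at each concentration; neutral controls contain all components with DMSO in place of compound.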

In assay [2] the target is recombinant human IL-17AA (Homo sapiens, UniProt Q16552). Put plainly: IL-6 release from NHDF cells, IL-17AA plus TNF-α stimulation. It is filed as cell-based. The conditions noted are these: NHDF cells, IL-17AA 30 pM + TNF-α 6 pM, 24 hours, IL-6 by ELISA; read-out: IL17AA + TNF IC50 IL-6. Put shortly: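 ELISA measured IL-6 in supernatants after 24 h at 37° C of NHDF cells with a compound/cytokine cocktail, pre-mixed 30 min at room temperature. Duplicates; 0.1% DMSO or 20% plasma final. IC50 from IL-6 remaining after subtracting the TNF-α-alone signal.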
Chain of recombinant human IL-17AA (Q16552 24-155): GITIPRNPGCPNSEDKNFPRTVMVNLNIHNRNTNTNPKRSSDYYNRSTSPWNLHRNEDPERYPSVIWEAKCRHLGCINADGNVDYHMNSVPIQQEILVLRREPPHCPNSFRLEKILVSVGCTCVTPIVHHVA
A general note: In an ELISA, binding on a coated surface is turned into a signal by an enzyme label.

From patent publication US12600728B2, “Interleukin-17 inhibitors” (priority 2020, dated 2026) come the findings set out here.

Chain of biotinylated human IL-17A / AF647-labeled human IL-17RA (Q16552 24-155): as above

Regarding `Cc1cc[n+]([O-])c(C)c1-c1ccc(NC(=O)[C@H](Cc2ccccc2Cl)NC(=O)c2ccnn2C)cc1` [Example 180, (S)-3-(4-(3-(2-chlorophenyl)-2-(1-methyl-1H-pyrazole-5-carboxamido)propanamido)phenyl)-2,4-dimethylpyridine 1-oxide], the IC50 was 52 nM in assay [1] and 372 nM in assay [2].
With `Cc1c(-c2ccc(NC(=O)C(NC(=O)c3ccnn3C)C3CCCC(F)C3)cc2)c(Cl)cc[n+]1[O-]` (centres unmarked) [Example 182, 4-chloro-3-(4-(2-(3-fluorocyclohexyl)-2-(1-methyl-1H-pyrazole-5-carboxamido)acetamido)phenyl)-2-methylpyridine 1-oxide], the IC50 came out at 61.2 nM in assay [1] and 44.5 nM in assay [2].
The like results for `Cc1c(-c2ccc(NC(=O)[C@@H](NC(=O)c3ccnn3C)[C@H]3CCCC(F)(F)C3)cc2)c(C(F)(F)F)cc[n+]1[O-]` [Example 183, 3-(4-((S)-2-((S)-3,3-difluorocyclohexyl)-2-(1-methyl-1H-pyrazole-5-carboxamido)acetamido)phenyl)-2-methyl-4-(trifluoromethyl)pyridine 1-oxide] were, in that order, 54.1 nM and 42 nM.
The like results for `CC(=O)N1CCn2c(ccc2C(=O)N[C@H](C(=O)Nc2ccc(-c3c(Cl)cc[n+]([O-])c3C)cc2F)C2CCCCC2)C1` [Example 184, (S)-3-(4-(2-(2-acetyl-1,2,3,4-tetrahydropyrrolo[1,2-a]pyrazine-6-carboxamido)-2-cyclohexylacetamido)-3-fluorophenyl)-4-chloro-2-methylpyridine 1-oxide] were, in that order, 59.9 nM and 11 nM.
For `CC(=O)N1CCn2ccc(C(=O)N[C@H](C(=O)Nc3ccc(-c4c(C)cc[n+]([O-])c4C)cc3)C3CCCCCC3)c2C1` [Example 185, (S)-3-(4-(2-(2-acetyl-1,2,3,4-tetrahydropyrrolo[1,2-a]pyrazine-8-carboxamido)-2-cycloheptylacetamido)phenyl)-2,4-dimethylpyridine 1-oxide], the IC50 in assay [1] is 77.1 nM; in assay [2], 9.75 nM.
Take `Cc1c(-c2ccc(NC(=O)C(NC(=O)c3ccc4n3CCNC4)C3CCCc4ccccc43)cc2F)c(Cl)cc[n+]1[O-]` [Example 186, 4-chloro-3-(2-fluoro-4-((S)-2-((S)-1,2,3,4-tetrahydronaphtha]en-1-yl)-2-(1,2,3,4-tetrahydropyrrolo[1,2-a]pyrazine-6-carboxamido)acetamido)phenyl)-2-methylpyridine 1-oxide]: the IC50 in assay [1] was found to be 81.5 nM; in assay [2], 34 nM.
`CC(=O)N1CCn2c(ccc2C(=O)N[C@H](C(=O)Nc2ccc(-c3c(Cl)cc[n+]([O-])c3C)c(F)c2)C2CCCCC2)C1` [Example 187, 3-(4-((S)-2-(2-acetyl-1,2,3,4-tetrahydropyrrolo[1,2-a]pyrazine-6-carboxamido)-2-cyclohexylacetamido)-2-fluorophenyl)-4-chloro-2-methylpyridine 1-oxide]: the IC50 was 85.4 nM in assay [1] and 17 nM in assay [2].
For the compound `CC(=O)N1CCn2c(ccc2C(=O)N[C@H](C(=O)Nc2ccc(-c3c(C)cc[n+]([O-])c3C)cc2)C2CCCCCC2)C1` [Example 188, (S)-3-(4-(2-(2-acetyl-1,2,3,4-tetrahydropyrrolo[1,2-a]pyrazine-6-carboxamido)-2-cycloheptylacetamido)phenyl)-2,4-dimethylpyridine 1-oxide], the IC50 in assay [1] came out at 104 nM; in assay [2] it was 6.05 nM.
With `Cc1cc[n+]([O-])c(C)c1-c1ccc(NC(=O)[C@@H](NC(=O)c2ccn3c2CNCC3)C2CCCCCC2)cc1` [Example 189, (S)-3-(4-(2-cycloheptyl-2-(1,2,3,4-tetrahydropyrrolo[1,2-a]pyrazine-8-carboxamido)acetamido)phenyl)-2,4-dimethylpyridine 1-oxide], the IC50 in assay [1] came to 118 nM; in assay [2], 15.5 nM.
Take `Cc1cc[n+]([O-])c(C)c1-c1ccc(NC(=O)[C@H](Cc2ccccc2Cl)NC(=O)c2ccc3n2CCNC3)cc1` [Example 190, (S)-3-(4-(3-(2-chlorophenyl)-2-(1,2,3,4-tetrahydropyrrolo[1,2-a]pyrazine-6-carboxamido)propanamido)phenyl)-2,4-dimethylpyridine 1-oxide]: the IC50 in assay [1] turned out to be 123 nM; in assay [2], 278 nM.
In the same order, the values of `CC(=O)N1CCn2c(ccc2C(=O)N[C@H](C(=O)Nc2ccc(-c3c(C(F)(F)F)cc[n+]([O-])c3C)cc2)C2CCCCC2)C1` [Example 191, (S)-3-(4-(2-(2-acetyl-1,2,3,4-tetrahydropyrrolo[1,2-a]pyrazine-6-carboxamido)-2-cyclohexylacetamido)phenyl)-2-methyl-4-(trifluoromethyl)pyridine 1-oxide] are 128 nM and 18.5 nM.
Consider `Cc1cc[n+]([O-])c(C)c1-c1ccc(NC(=O)[C@@H](NC(=O)c2ccnn2C)C(c2ccccc2)c2ccccc2)cc1` [Example 193, (S)-2,4-dimethyl-3-(4-(2-(1-methyl-1H-pyrazole-5-carboxamido)-3,3-diphenylpropanamido)phenyl)pyridine 1-oxide], for which the IC50 in assay [1] stood at 97.3 nM; in assay [2], 47 nM.
On to `CC(=O)N1CCn2c(ccc2C(=O)NC(C(=O)Nc2ccc(-c3c(Cl)cc[n+]([O-])c3C)c(F)c2)[C@H]2C[C@@H]3C[C@@H]3C2)C1` (stereo partly drawn) [Example 194, 3-(4-(2-(2-acetyl-1,2,3,4-tetrahydropyrrolo[1,2-a]pyrazine-6-carboxamido)-2-((1R,3s,5S)-bicyclo[3.1.0]hexan-3-yl)acetamido)-2-fluorophenyl)-4-chloro-2-methylpyridine 1-oxide], for which the IC50 came out at 165 nM in assay [1] and 47 nM in assay [2].
In the same order, the values of `CC(=O)N1CCn2c(ccc2C(=O)N[C@H](C(=O)Nc2ccc(-c3c(C)cc[n+]([O-])c3C)cc2F)C2CCCCCC2)C1` [Example 195, (S)-3-(4-(2-(2-acetyl-1,2,3,4-tetrahydropyrrolo[1,2-a]pyrazine-6-carboxamido)-2-cycloheptylacetamido)-3-fluorophenyl)-2,4-dimethylpyridine 1-oxide] are 178 nM and 28.5 nM.
Turning to `Cc1c(-c2ccc(NC(=O)[C@@H](NC(=O)c3ccc4n3CCNC4)C3CCC(F)(F)CC3)cc2)c(Cl)cc[n+]1[O-]` [Example 196, (S)-4-chloro-3-(4-(2-(4,4-difluorocyclohexyl)-2-(1,2,3,4-tetrahydropyrrolo[1,2-a]pyrazine-6-carboxamido)acetamido)phenyl)-2-methylpyridine 1-oxide], the results for the IC50 in assay [1] and in assay [2] were 181 nM and 12.6 nM, respectively.
In the same order, the values of `Cc1cc[n+]([O-])c(C)c1-c1ccc(NC(=O)[C@@H](NC(=O)c2ccnn2C)[C@H]2CCC[C@H](F)CC2)cc1` [Example 197, 3-(4-((S)-2-((1S,4S)-4-fluorocycloheptyl)-2-(1-methyl-1H-pyrazole-5-carboxamido)acetamido)phenyl)-2,4-dimethylpyridine 1-oxide] are 213 nM and 121 nM.
With `CC(=O)N1CCn2c(ccc2C(=O)N[C@H](C(=O)Nc2ccc(-c3c(Cl)cc[n+]([O-])c3C)cc2)C2CCCCC2)C1` [Example 199, (S)-3-(4-(2-(2-acetyl-1,2,3,4-tetrahydropyrrolo[1,2-a]pyrazine-6-carboxamido)-2-cyclohexylacetamido)phenyl)-4-chloro-2-methylpyridine 1-oxide], the IC50 was determined as 237 nM in assay [1] and 11.5 nM in assay [2].
Regarding `Cc1cc[n+]([O-])c(C)c1-c1ccc(NC(=O)[C@@H](NC(=O)c2ccc3n2CCNC3)C2CCC(F)CC2)cc1` (stereo partly drawn) [Example 200, 3-(4-((2S)-2-(4-fluorocyclohexyl)-2-(1,2,3,4-tetrahydropyrrolo[1,2-a]pyrazine-6-carboxamido)acetamido)phenyl)-2,4-dimethylpyridine 1-oxide], the IC50 in assay [1] came out at 246 nM; in assay [2], 416 nM.
For the compound `Cc1cc[n+]([O-])c(C)c1-c1ccc(NC(=O)C(NC(=O)c2ccc3n2CCNC3)C2CC3CC3C2)cc1` [Example 201, 3-(4-((S)-2-((1R,3r,5S)-bicyclo[3.1.0]hexan-3-yl)-2-(1,2,3,4-tetrahydropyrrolo[1,2-a]pyrazine-6-carboxamido)acetamido)phenyl)-2,4-dimethylpyridine 1-oxide], the IC50 in assay [1] was determined as 252 nM; in assay [2], 61 nM.
The like results for `Cc1cc[n+]([O-])c(C)c1-c1ccc(NC(=O)[C@@H](NC(=O)c2ccc3n2CCNC3)C2CCCCCC2)cc1` [Example 202, (S)-3-(4-(2-cycloheptyl-2-(1,2,3,4-tetrahydropyrrolo[1,2-a]pyrazine-6-carboxamido)acetamido)phenyl)-2,4-dimethylpyridine 1-oxide] were, in that order, 257 nM and 73 nM.
Regarding `Cc1c(-c2ccc(NC(=O)C(NC(=O)c3ccc4n3CCN(C)C4)C3CC4CC4C3)cc2F)c(Cl)cc[n+]1[O-]` (centres unmarked) [Example 203, 3-(4-(2-(bicyclo[3.1.0]hexan-3-yl)-2-(2-methyl-1,2,3,4-tetrahydropyrrolo[1,2-a]pyrazine-6-carboxamido)acetamido)-2-fluorophenyl)-4-chloro-2-methylpyridine 1-oxide], the values for the IC50 in assay [1] and in assay [2] were 257 nM and 39 nM, respectively.
As for `Cc1cc[n+]([O-])c(C)c1-c1ccc(NC(=O)C(NC(=O)c2ccc3n2CCNC3)C2CC3CC3C2)cc1` [Example 204, 3-(4-((S)-2-((1R,3s,5S)-bicyclo[3.1.0]hexan-3-yl)-2-(1,2,3,4-tetrahydropyrrolo[1,2-a]pyrazine-6-carboxamido)acetamido)phenyl)-2,4-dimethylpyridine 1-oxide], the figures for the IC50 in assay [1] and in assay [2] were 278 nM and 95 nM, respectively.
